In PubChem BioAssay (NCI) one finds TGI data, which are given here for 14 compounds.

Common to all, as to experiment: NCI tumour cell line growth inhibition, 48 h
Assay [1] relates to U251 CNS.
In assay [2] the test system is M14 melanoma.
Assay [3] concerns OVCAR-8 ovarian.
The subject of assay [4] is SR leukemia.
For assay [5], the system named is ACHN renal.
The test system of assay [6] is SK-MEL-5 melanoma.
Assay [7] has as its system HL-60(TB) leukemia.
In assay [8] the test system is K-562 leukemia.
Assay [9] deals with MDA-MB-435.
For assay [10], the system named is HOP-62 NSCLC.

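Protocol summary: plate cells (96-well), add compound at 5 concentrations, incubate 48 h, interpolate endpoints linearly. Definition used: TGI = concentration required for complete inhibition of growth.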 Some results are limits rather than exact numbers.

As to `CCCCCCCCCCCCCCCCOC[C@@H](COC(c1ccccc1)(c1ccccc1)c1ccccc1)O[P+](=S)OC` (some centres not stated), the TGI amounted to 17.6 µM in [1]; 14.5 µM in [2]; 48.9 µM in assay [3]; 5.46 µM in assay [4]; 29 µM in [5]; 22.4 µM in assay [6]. Besides, the TGI in [7] stood at 36 µM; in assay [8], 41.8 µM; in assay [9], 5.5 µM.

As to `CCCCON1C[C@H](OC(C)=O)C(OC(C)=O)[C@H](OC(C)=O)C1` (some centres not stated), the TGI in assay [1], in [10], in assay [2], in assay [3], in assay [4] and in assay [5] was above 100 µM throughout. The TGI in assay [6], in assay [7], in assay [8] and in [9] was above 100 µM throughout.

As to `Nc1ccc(C(=O)c2cn(CCN3CCOCC3)c3ccccc23)c2ccccc12`, the TGI in assay [1] is above 100 µM; in assay [10] it was above 100 µM; in assay [2] it was above 100 µM; in [3], 52.7 µM; in assay [4], 65.6 µM; in assay [5], above 100 µM. The TGI was 51.5 µM in assay [6], 44.8 µM in [7], 56.7 µM in assay [8] and 83 µM in assay [9].

`S=C(c1c[nH]c2ccccc12)N1CCN(Cc2ccccc2)CC1`: the TGI in [1] is 33.6 µM; in assay [10], 33 µM; in [2], 26.9 µM; in assay [3], 43.7 µM; in assay [4], 47.9 µM; in assay [5] it was above 100 µM. The TGI was 24.5 µM in assay [6], 44 µM in assay [7], above 100 µM in [8] and 28.8 µM in assay [9].

In the case of `CCOC(=O)CC(=O)Nc1cccc2[nH]cnc12`, the TGI in assay [1], in [10], in assay [2], in assay [3], in assay [4] and in assay [5] was above 100 µM each time. Moreover, the TGI in assay [6], in [7], in assay [8] and in assay [9] was above 100 µM in each case.

On to `O=[N+]([O-])c1ccc(C=NCC2CCCN3CCCCC23)cc1` (configuration not stated), for which the TGI in [1], in assay [10], in assay [2], in [3], in [4] and in assay [5] was above 100 µM throughout. In addition, the TGI in assay [6], in assay [7], in assay [8] and in [9] was above 100 µM in each case.

For `Cc1ccc(NC(=O)CSc2nc(=O)[nH]c3nc[nH]c23)cc1`, the TGI in assay [1], in assay [10], in assay [2], in [3], in assay [4] and in assay [5] was above 100 µM throughout. Also, the TGI in [6], in [7], in assay [8] and in assay [9] was above 100 µM each time.

As to `CC1=C(C(=O)c2ccccc2)C23C(=O)N(c4ccccc4)C(=O)C2=C(O)C=CC3(O)N1` (configuration not stated), the TGI in assay [1] is 81.5 µM; in assay [10], above 100 µM; in assay [2], above 100 µM; in assay [3], 98.9 µM; in assay [4], 46.3 µM; in assay [5], 40.4 µM. Moreover, the TGI in assay [6] is 41.9 µM; in [7] it was 50.7 µM; in assay [8], 75.1 µM; in [9], above 100 µM.

Regarding `COC(C)(C)C1(O)CCC(C)CC1=O` (configuration not stated), the TGI in [1], in assay [10], in assay [2], in assay [3], in [4] and in assay [5] was above 100 µM in each case. The TGI in assay [6], in assay [7] and in assay [9] was above 100 µM in each case.

`COc1cc2c(=O)cnoc2cc1O`: the TGI in assay [1], in [2], in [3], in assay [4], in [5] and in assay [6] was above 100 µM each time. The TGI in [7], in assay [8] and in assay [9] was above 100 µM in each case.

On to `FC1C2=C(SC1(F)F)C1CCC2C1` (configuration not stated), for which the TGI in assay [2], in assay [3], in assay [4], in assay [5], in assay [6] and in assay [7] was above 100 µM in each case. Moreover, the TGI in [8] and in [9] was above 100 µM in each case.

On to `Cc1ccc2oc(=O)c(C(=O)Nc3nc(C45CC6CC(CC(C6)C4)C5)cs3)cc2c1`, for which the TGI in assay [1], in assay [10], in assay [3], in assay [4], in assay [5] and in assay [6] was above 100 µM in each case. The TGI in assay [7], in assay [8] and in assay [9] was above 100 µM each time.

Turning to `CN(C)CCCn1nc(N)c2nc3cc(Cl)ccc3nc21`, the TGI is above 100 µM in [1]; above 100 µM in [10]; 47.4 µM in assay [2]; above 100 µM in assay [3]; above 100 µM in [4]; above 100 µM in assay [5]. The TGI was 41.3 µM in [6], above 100 µM in [8] and above 100 µM in [9].

In the case of `O=C1CC(c2cccc(Br)c2)n2cccc21` (configuration not stated), the TGI in assay [1], in assay [10], in assay [2], in assay [3], in assay [4] and in assay [5] was above 100 µM each time. For the same compound, the TGI in assay [7] was 87.3 µM; in assay [8], above 100 µM; in assay [9], above 100 µM.
